Where a name gives a salt, the structure may show the parent alone.
Columns and labels:
Conditions in all cases: 72 h
[1] = system: HepG2; test: relative viability EC50 (midpoint between 100% and the lowest measured viability); higher = less toxic
[2] = system: U2OS; test: as above
[3] = system: Calu-3; test: as above
[4] = system: Caco-2; test: as above
[5] = system: HepG2; test: drug sensitivity score (DSS) for viability; higher = more toxic; extreme values may be limits of the assay
[6] = system: U2OS; test: as above
[7] = system: Calu-3; test: as above
[8] = system: Caco-2; test: as above
[9] = system: HepG2; test: cell viability relative to DMSO; higher = less toxic
[10] = system: U2OS; test: as above
[11] = system: Calu-3; test: as above
[12] = system: Caco-2; test: as above
[13] = system: Vero E6; test: relative viability EC50 (midpoint between 100% and the lowest measured viability); higher = less toxic
[14] = system: Vero E6; test: drug sensitivity score (DSS) for viability; higher = more toxic; extreme values may be limits of the assay
[15] = system: Vero E6; test: cell viability relative to DMSO; higher = less toxic

| SMILES | relative viability EC50 [1] | relative viability EC50 [2] | relative viability EC50 [3] | relative viability EC50 [4] | drug sensitivity score [5] | drug sensitivity score [6] | drug sensitivity score [7] | drug sensitivity score [8] | cell viability ([9]; 1 nM) | cell viability ([9]; 10 nM) | cell viability ([9]; 100 nM) | cell viability ([9]; 1000 nM) | cell viability ([9]; 10000 nM) | cell viability ([10]; 1 nM) | cell viability ([10]; 10 nM) | cell viability ([10]; 100 nM) | cell viability ([10]; 1000 nM) | cell viability ([10]; 10000 nM) | cell viability ([11]; 1 nM) | cell viability ([11]; 10 nM) | cell viability ([11]; 100 nM) | cell viability ([11]; 1000 nM) | cell viability ([11]; 10000 nM) | cell viability ([12]; 1 nM) | cell viability ([12]; 10 nM) | cell viability ([12]; 100 nM) | cell viability ([12]; 1000 nM) | cell viability ([12]; 10000 nM) | relative viability EC50 [13] | drug sensitivity score [14] | cell viability ([15]; 1 nM) | cell viability ([15]; 10 nM) | cell viability ([15]; 100 nM) | cell viability ([15]; 1000 nM) | cell viability ([15]; 10000 nM) |
| --- | --- | --- | --- | --- | --- | --- | --- | --- | --- | --- | --- | --- | --- | --- | --- | --- | --- | --- | --- | --- | --- | --- | --- | --- | --- | --- | --- | --- | --- | --- | --- | --- | --- | --- | --- |
| Cc1c(NC(=O)N2CCOCC2)ccc2c1c1ccccc1n2C(C)C [NPY-5RA972] | > 10 µM | > 10 µM | > 10 µM | > 10 µM | 0 | 0 | 0 | 0 | 102% | 98.5% | 97.3% | 118% | 95.5% | 100% | 98.2% | 105% | 98.6% | 97.5% | 109% | 89.5% | 105% | 93.5% | 96% | 92.2% | 106% | 98.7% | 101% | 95.4% | – | – | – | – | – | – | – |
| CCCn1c(=O)[nH]c2nc(-c3ccc(S(=O)(=O)O)cc3)[nH]c2c1=O [PSB-1115] | – | > 10 µM | > 10 µM | > 10 µM | – | 0 | 0 | 0 | – | – | – | – | – | 99.9% | 109% | 98.2% | 108% | 102% | 112% | 104% | 100% | 110% | 94.4% | 99.4% | 94.6% | 111% | 105% | 95.4% | > 10 µM | 0 | 106% | 105% | 107% | 103% | 95.5% |
| CC[C@H]1OC(=O)C[C@@H](O)[C@H](C)[C@@H](O[C@@H]2O[C@H](C)[C@@H](O[C@H]3C[C@@](C)(O)[C@@H](O)[C@H](C)O3)[C@H](N(C)C)[C@H]2O)[C@@H](CC=O)C[C@@H](C)C(=O)/C=C/C(C)=C/[C@@H]1CO[C@@H]1O[C@H](C)[C@@H](O)[C@@H](OC)[C@H]1OC [TYLOSIN TARTRATE] | 2.44 µM | 0.566 µM | – | 1.03 µM | 4 | 8.7 | 2.1 | 8.9 | 99% | 101% | 95.2% | 94.8% | 40.7% | 102% | 97.3% | 96.9% | 56.6% | 39.9% | 104% | 108% | 104% | 91% | 74.6% | 101% | 96.4% | 109% | 63% | 23.4% | 2.7 µM | 5.2 | 102% | 102% | 98.7% | 95.2% | 18.9% |
| CC(C)N1CCN(c2ccc(C(=O)c3c(-c4ccc(O)cc4)sc4cc(O)ccc34)cc2)CC1 [Y-134] | – | > 10 µM | – | > 10 µM | 0.9 | 0 | 1 | 0.6 | 113% | 101% | 94% | 104% | 72.3% | 102% | 98.5% | 99% | 97.1% | 91.8% | 96% | 96.2% | 101% | 102% | 72.4% | 99.5% | 102% | 100% | 98.7% | 81.4% | > 10 µM | 0.3 | 101% | 104% | 102% | 103% | 82.8% |
